In patent US10034861B2 (priority 2016, dated 2018):
Where two headings read alike, the source gives them in different places.

Columns and labels:
Format in all cases: biochemical
PDE1C = PDE1C (Homo sapiens (Human), UniProt Q14123); test: biochemical
Text: (§1) Table 1 lists the IC50 value for inhibition of PDE1 by the compounds of the invention. […] PDE1 assays are described in the Experimental Section.

PDE1A = PDE1A (Homo sapiens (Human), UniProt P54750); test: biochemical
Text: as §1

PDE1B = PDE1B (Homo sapiens (Human), UniProt Q01064); test: PDE1 inhibition assay (PDE1B); conditions: 15 nM tritium labelled cAMP, 1 hr at room temperature, SPA beads
PDE1B, sequence (Q01064 whole entry): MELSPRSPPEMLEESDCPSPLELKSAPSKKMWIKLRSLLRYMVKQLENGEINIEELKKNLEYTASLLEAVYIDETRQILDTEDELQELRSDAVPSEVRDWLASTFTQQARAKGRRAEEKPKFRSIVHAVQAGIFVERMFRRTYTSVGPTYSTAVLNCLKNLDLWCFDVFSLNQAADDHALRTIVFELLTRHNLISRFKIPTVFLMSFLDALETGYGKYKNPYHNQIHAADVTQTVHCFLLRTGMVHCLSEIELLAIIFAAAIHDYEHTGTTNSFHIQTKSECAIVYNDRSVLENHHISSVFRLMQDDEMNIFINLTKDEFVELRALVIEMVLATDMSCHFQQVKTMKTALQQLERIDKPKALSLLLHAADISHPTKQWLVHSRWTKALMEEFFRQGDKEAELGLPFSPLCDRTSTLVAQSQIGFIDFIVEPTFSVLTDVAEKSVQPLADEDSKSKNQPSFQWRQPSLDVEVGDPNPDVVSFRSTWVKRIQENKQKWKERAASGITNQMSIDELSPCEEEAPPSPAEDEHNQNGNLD
Text: as §1

[1] = 15 nM tritium labelled cAMP, 1 hr at room temperature, SPA beads

PDE1A, sequence (P54750 whole entry): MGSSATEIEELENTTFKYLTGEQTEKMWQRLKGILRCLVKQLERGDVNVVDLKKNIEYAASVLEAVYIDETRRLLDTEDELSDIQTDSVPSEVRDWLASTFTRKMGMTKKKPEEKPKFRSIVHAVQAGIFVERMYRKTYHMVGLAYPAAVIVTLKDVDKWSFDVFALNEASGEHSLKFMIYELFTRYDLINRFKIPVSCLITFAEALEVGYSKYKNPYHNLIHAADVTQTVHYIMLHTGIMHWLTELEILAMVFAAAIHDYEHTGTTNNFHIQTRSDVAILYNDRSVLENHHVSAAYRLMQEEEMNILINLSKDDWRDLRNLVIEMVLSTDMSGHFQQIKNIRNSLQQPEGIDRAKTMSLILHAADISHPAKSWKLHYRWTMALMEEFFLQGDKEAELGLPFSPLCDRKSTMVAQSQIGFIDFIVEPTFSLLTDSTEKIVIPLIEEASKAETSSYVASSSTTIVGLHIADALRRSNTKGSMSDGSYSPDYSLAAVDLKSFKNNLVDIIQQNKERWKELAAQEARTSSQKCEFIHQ
PDE1C, sequence (Q14123 whole entry): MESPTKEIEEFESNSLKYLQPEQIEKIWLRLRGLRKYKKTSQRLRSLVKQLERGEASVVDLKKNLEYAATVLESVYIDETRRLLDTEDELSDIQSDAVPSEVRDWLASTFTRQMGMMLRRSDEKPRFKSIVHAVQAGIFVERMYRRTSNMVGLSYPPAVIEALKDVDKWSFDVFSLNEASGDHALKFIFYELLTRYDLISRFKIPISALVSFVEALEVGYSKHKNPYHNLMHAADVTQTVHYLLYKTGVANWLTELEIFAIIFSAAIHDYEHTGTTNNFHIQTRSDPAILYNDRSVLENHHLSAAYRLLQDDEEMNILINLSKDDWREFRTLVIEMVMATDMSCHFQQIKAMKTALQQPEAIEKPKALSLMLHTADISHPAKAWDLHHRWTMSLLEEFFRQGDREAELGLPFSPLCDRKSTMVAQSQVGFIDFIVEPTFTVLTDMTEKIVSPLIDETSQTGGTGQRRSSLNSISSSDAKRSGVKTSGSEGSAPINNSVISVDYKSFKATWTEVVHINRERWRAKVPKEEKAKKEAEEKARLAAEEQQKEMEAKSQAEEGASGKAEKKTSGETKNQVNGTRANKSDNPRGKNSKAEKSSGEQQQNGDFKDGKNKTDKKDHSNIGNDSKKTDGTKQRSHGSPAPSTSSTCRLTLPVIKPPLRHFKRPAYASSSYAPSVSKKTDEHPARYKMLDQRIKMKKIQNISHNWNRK

Row | Structure (SMILES) | IC50 (PDE1C) | IC50 (PDE1A; [1]) | IC50 (PDE1B; PDE1B, IC50 (nM)) | IC50 (PDE1C; [1]) | IC50 (PDE1B; read-out: PDE1B, IC50) | IC50 (PDE1A)
1 | CCOc1ncccc1-c1cc(NCc2cc[nH]n2)c2c(cnn2C(C)CC)n1 (single isomer, unassigned) [Example 136, 5-(2-ethoxy-3-pyridyl)-1-[1-methylpropyl]-N-(1H-pyrazol-3-ylmethyl)pyrazolo[4,3-b]pyridin-7-amine] | 100 nM | 62 nM | 3.2 nM |  |  | 
2 | CCOc1ncccc1-c1cc(NCc2cccnc2OC)c2c(n1)c(C)nn2C(C)C [Example 86, 5-(2-ethoxy-3-pyridyl)-1-isopropyl-N-[(2-methoxy-3-pyridyl)methyl]-3-methyl-pyrazolo[4,3-b]pyridin-7-amine] |  | 20 nM |  | 68 nM | 0.36 nM | 
3 | CCOc1ncccc1-c1cc(NCc2ccc(OC)nc2)c2c(n1)c(C)nn2C(C)C [Example 111, 5-(2-ethoxy-3-pyridyl)-1-isopropyl-N-[(6-methoxy-3-pyridyl)methyl]-3-methyl-pyrazolo[4,3-b]pyridin-7-amine] |  | 28 nM |  | 68 nM | 1.4 nM | 
4 | CCOc1ncccc1-c1cc(NCc2coc(C)n2)c2c(n1)c(C)nn2C(C)C [Example 37, 5-(2-ethoxy-3-pyridyl)-1-isopropyl-3-methyl-N-[(2-methyloxazol-4-yl)methyl]pyrazolo[4,3-b]pyridin-7-amine] |  | 5.9 nM |  | 18 nM | 0.43 nM | 
5 | CCOc1ncccc1-c1cc(NCc2ccn(C)n2)c2c(n1)c(C)nn2C(C)CC (single isomer, unassigned) [Example 67, 5-(2-ethoxy-3-pyridyl)-3-methyl-1-[1-methylpropyl]-N-[(1-methylpyrazol-3-yl)methyl]pyrazolo[4,3-b]pyridin-7-amine] |  | 9.6 nM | 0.64 nM | 27 nM |  | 
6 | Cc1nn(C(C)C)c2c(NCc3cnn(C)c3)cc(N3CCOC3=O)nc12 [Example 151, 3-[1-isopropyl-3-methyl-7-[(1-methylpyrazol-4-yl)methylamino]pyrazolo[4,3-b]pyridin-5-yl]oxazolidin-2-one] |  | 10 nM |  | 12 nM | 4.7 nM | 
7 | CCOc1ncccc1-c1cc(SCc2cnn(C)c2)c2c(n1)c(C)nn2C(C)C [Example 164, 5-(2-ethoxy-3-pyridyl)-1-isopropyl-3-methyl-7-[(1-methylpyrazol-4-yl)methylsulfanyl]pyrazolo[4,3-b]pyridine] |  |  | 1.6 nM | 25 nM |  | 6.8 nM
8 | CCOc1ncccc1-c1cc(NCc2nnc(C)o2)c2c(cnn2C(C)CC)n1 (single isomer, unassigned) [Example 138, 5-(2-ethoxy-3-pyridyl)-N-[(5-methyl-1,3,4-oxadiazol-2-yl)methyl]-1-[1-methylpropyl]pyrazolo[4,3-b]pyridin-7-amine] | 180 nM | 93 nM | 6.8 nM |  |  | 
9 | CCOc1ncccc1-c1cc(NCc2ncn(C)n2)c2c(cnn2C(C)CC)n1 (single isomer, unassigned) [Example 141, 5-(2-ethoxy-3-pyridyl)-1-[1-methylpropyl]-N-[(1-methyl-1,2,4-triazol-3-yl)methyl]pyrazolo[4,3-b]pyridin-7-amine] | 76 nM | 44 nM | 2.2 nM |  |  | 
10 | CCOc1ncccc1-c1cc(NCc2ccc(C)nc2)c2c(n1)c(C)nn2C(C)C [Example 87, 5-(2-ethoxy-3-pyridyl)-1-isopropyl-3-methyl-N-[(6-methyl-3-pyridyl)methyl]pyrazolo[4,3-b]pyridin-7-amine] |  | 6.3 nM |  | 13 nM | 0.95 nM | 
11 | COc1ncccc1CNc1cc(-c2cccnc2OC2CC2)nc2c(C)nn(C(C)C)c12 [Example 174, 5-(2-cyclopropoxypyridin-3-yl)-1-isopropyl-N-((2-methoxypyridin-3-yl)methyl)-3-methyl-1H-pyrazolo[4,3-b]pyridin-7-amine] |  | 18 nM |  | 52 nM | 1.5 nM | 
12 | Cc1sccc1-c1cc(NCc2cnn(C)c2)c2c(n1)c(C)nn2C(C)C [Example 65, 1-isopropyl-3-methyl-N-[(1-methylpyrazol-4-yl)methyl]-5-(2-methyl-3-thienyl)pyrazolo[4,3-b]pyridin-7-amine] |  | 7.9 nM |  |  | 1.2 nM | 
13 | Cc1ncoc1-c1cc(NCc2cnn(C)c2)c2c(n1)c(C)nn2C(C)C [Example 200, 1-isopropyl-3-methyl-N-((1-methyl-1H-pyrazol-4-yl)methyl)-5-(4-methyloxazol-5-yl)-1H-pyrazolo[4,3-b]pyridin-7-amine] |  | 98 nM |  | 110 nM | 18 nM | 
14 | CCOc1ncccc1-c1cc(NCc2ccccc2)c2c(cnn2C(C)C)n1 [Example 41, N-benzyl-5-(2-ethoxy-3-pyridyl)-1-isopropyl-pyrazolo[4,3-b]pyridin-7-amine] |  | 500 nM |  | 500 nM | 45 nM | 
15 | CCOc1ncccc1-c1cc(NCc2cc[nH]n2)c2c(n1)c(C)nn2C(C)C [Example 39, 5-(2-ethoxy-3-pyridyl)-1-isopropyl-3-methyl-N-(1H-pyrazol-3-ylmethyl)pyrazolo[4,3-b]pyridin-7-amine] |  | 8.1 nM |  | 13 nM | 0.43 nM | 
16 | CCOc1ncccc1-c1cc(NCc2nc(C)no2)c2c(n1)c(C)nn2C(C)C [Example 30, 5-(2-ethoxy-3-pyridyl)-1-isopropyl-3-methyl-N-[(3-methyl-1,2,4-oxadiazol-5-yl)methyl]pyrazolo[4,3-b]pyridin-7-amine] |  | 15 nM |  | 31 nM | 1.3 nM | 
17 | CCOc1ncccc1-c1cc(NCc2cnn(C)c2)c2c(n1)c(C)nn2C1CC1 [Example 12, 1-cyclopropyl-5-(2-ethoxy-3-pyridyl)-3-methyl-N-[(1-methylpyrazol-4-yl)methyl]pyrazolo[4,3-b]pyridin-7-amine] |  | 200 nM |  | 690 nM | 60 nM | 
18 | CCOc1ncccc1-c1cc(NCc2cnc(OC)cn2)c2c(n1)c(C)nn2C(C)C [Example 114, 5-(2-ethoxy-3-pyridyl)-1-isopropyl-N-[(5-methoxypyrazin-2-yl)methyl]-3-methyl-pyrazolo[4,3-b]pyridin-7-amine] |  | 24 nM |  | 46 nM | 3 nM | 
19 | CCOc1ncccc1-c1cc(NCc2ccc(C)s2)c2c(n1)c(C)nn2C(C)C [Example 36, 5-(2-ethoxy-3-pyridyl)-1-isopropyl-3-methyl-N-[(5-methyl-2-thienyl)methyl]pyrazolo[4,3-b]pyridin-7-amine] |  | 24 nM |  | 41 nM | 5.2 nM | 
20 | Cc1nn(C(C)C)c2c(NCc3cnn(C)c3)cc(N3C(=O)OCC3C)nc12 (stereo not shown) [Example 155, 3-[1-isopropyl-3-methyl-7-[(1-methylpyrazol-4-yl)methylamino]pyrazolo[4,3-b]pyridin-5-yl]-4-methyl-oxazolidin-2-one] |  | 8.2 nM |  | 3.9 nM | 4.9 nM | 
21 | CCOc1ncccc1-c1cc(NCc2nc[nH]n2)c2c(n1)c(C)nn2C(C)C [Example 98, 5-(2-ethoxy-3-pyridyl)-1-isopropyl-3-methyl-N-(1H-1,2,4-triazol-3-ylmethyl)pyrazolo[4,3-b]pyridin-7-amine] |  |  |  | 21 nM | 0.58 nM | 
22 | CCOc1ncccc1-c1cc(NCc2cc[nH]n2)c2c(n1)c(C)nn2C(C)CC (single isomer, unassigned) [Example 119, 5-(2-ethoxy-3-pyridyl)-3-methyl-1-[1-methylpropyl]-N-(1H-pyrazol-3-ylmethyl)pyrazolo[4,3-b]pyridin-7-amine] | 29 nM |  | 0.56 nM |  |  | 
23 | Cc1nn(C(C)C)c2c(NCc3cnn(C)c3)cc(-c3cccn(C)c3=O)nc12 [Example 49, 3-(1-isopropyl-3-methyl-7-(((1-methyl-1H-pyrazol-4-yl)methyl)amino)-1H-pyrazolo[4,3-b]pyridin-5-yl)-1-methylpyridin-2(1H)-one] |  |  |  | 420 nM | 20 nM | 
24 | CCOc1ncccc1-c1cc(NCc2cnn(C(F)F)c2)c2c(n1)c(C)nn2C(C)C [Example 165, N-[[1-(difluoromethyl)pyrazol-4-yl]methyl]-5-(2-ethoxy-3-pyridyl)-1-isopropyl-3-methyl-pyrazolo[4,3-b]pyridin-7-amine] |  |  | 5.9 nM |  |  | 73 nM
25 | CCOc1ncccc1-c1cc(NCc2cc(CF)on2)c2c(n1)c(C)nn2C(C)C [Example 166, 5-(2-ethoxy-3-pyridyl)-N-[[5-(fluoromethyl)isoxazol-3-yl]methyl]-1-isopropyl-3-methyl-pyrazolo[4,3-b]pyridin-7-amine] |  |  |  |  | 0.16 nM | 
26 | CCOc1ncccc1-c1cc(NCc2nc(C)co2)c2c(n1)c(C)nn2C(C)C [Example 50, 5-(2-ethoxypyridin-3-yl)-1-isopropyl-3-methyl-N-((4-methyloxazol-2-yl)methyl)-1H-pyrazolo[4,3-b]pyridin-7-amine 2,2,2-trifluoroacetate] |  | 9 nM |  |  | 0.5 nM | 
27 | CCOc1ncccc1-c1cc(NCc2nc(C)cs2)c2c(n1)c(C)nn2C(C)C [Example 29, 5-(2-ethoxypyridin-3-yl)-1-isopropyl-3-methyl-N-((4-methylthiazol-2-yl)methyl)-1H-pyrazolo[4,3-b]pyridin-7-amine] |  |  |  |  | 1.1 nM | 
28 | CCOc1ncccc1-c1cc(NCc2cnc(C)o2)c2c(n1)c(C)nn2C(C)CC (single isomer, unassigned) [Example 133, 5-(2-ethoxy-3-pyridyl)-3-methyl-N-[(2-methyloxazol-5-yl)methyl]-1-[1-methylpropyl]pyrazolo[4,3-b]pyridin-7-amine] |  |  | 1.3 nM |  |  | 
29 | CCOc1ncccc1-c1cc(NCc2nnn(C)n2)c2c(n1)c(C)nn2C(C)CC (single isomer, unassigned) [Example 127, 5-(2-ethoxy-3-pyridyl)-3-methyl-1-[1-methylpropyl]-N-[(2-methyltetrazol-5-yl)methyl]pyrazolo[4,3-b]pyridin-7-amine] |  |  | 0.31 nM |  |  | 
